According to patent US6506751B1, “Thiazolidinone compounds useful as chemokine inhibitors” (Millennium Pharmaceuticals, Inc., priority 1999, dated 2003):

Target: T1, CCR-5 receptor (Homo sapiens, UniProt P51681)
T1 construct: membranes prepared from CCR-5/L 1.2 cells; expressed in transfected cells; host or cells: L1.2 cells (CCR-5/L 1.2), membrane preparation
Experiment: 125I-gp120/sCD4/CCR-5 binding assay (CCR-5 receptor binding assay)
Conditions: 10 μM compound; 125I-gp120/sCD4 binding to membranes from CCR-5/L 1.2 cells
Method: The ^125I-gp120/sCD4/CCR-5 binding assay is carried out similarly as described in Wu et al., Nature, 1996;384:179-183. Briefly, the envelope gp120 protein derived from HIV-1 JR-FL (Trkola et al., Nature, 1996;384:184-186), a M-tropic strain, is iodinated using solid phase lactoperoxidase to a specific activity of 20 μCi/μg. For each binding reaction (in a final volume of 100 μL binding buffer [50 mM HEPES, pH 7.5, 1 mM CaCl2, 5 mM MgCl2, and 0.5% BSA]), 25 μL (2.5 μg) of membranes prepared from CCR-5/L 1.2 cells are mixed with 25 μL (3 nM) sCD4, followed by 25 μL (0.1 nM) radiolabeled gp120 in the presence or absence of 25 μL compound dissolved in DMSO (final concentration of DMSO 0.5%). The reactions are incubated at room temperature for 45 to 60 minutes and stopped by transferring the mixture to GFB filter plates, which are then washed 3 to 4 times with binding buffer containing 0.5 M NaCl. The plates are dried and MicroScint scintillation fluid is added before counting.

T1 sequence (P51681 whole entry): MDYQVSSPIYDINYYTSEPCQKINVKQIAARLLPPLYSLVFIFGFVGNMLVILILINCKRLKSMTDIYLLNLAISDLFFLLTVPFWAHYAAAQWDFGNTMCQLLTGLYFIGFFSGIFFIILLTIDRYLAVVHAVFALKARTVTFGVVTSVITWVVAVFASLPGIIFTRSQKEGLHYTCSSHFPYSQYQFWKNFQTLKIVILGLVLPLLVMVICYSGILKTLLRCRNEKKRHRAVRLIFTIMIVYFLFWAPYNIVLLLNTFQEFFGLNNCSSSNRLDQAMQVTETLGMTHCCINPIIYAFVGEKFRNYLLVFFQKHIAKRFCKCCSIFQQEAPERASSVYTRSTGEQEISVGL

% Inhib. @ 10 μM | SMILES
78.8% | O=C1C(=Cc2cccc(F)c2)SC(c2cccc(Cl)c2)N1CCCN1CCN(c2ccccn2)CC1 (stereo not shown) [Compound 28, 2-(3-Chloro-phenyl)-5-(3-fluoro-benzylidene)-3-[3-(4-pyridin-2-yl-piperazin-1-yl)-propy1]-thiazolidin-4-one]
81.8% | O=C1C(=Cc2cccc(C(F)(F)F)c2)SC(c2cccc(Cl)c2)N1CCCN1CCN(c2ncccn2)CC1 (stereo not shown) [Compound 32]
70.1% | O=C1C(=Cc2ccccc2)SC(c2cccc([N+](=O)[O-])c2)N1CCCN1CCN(c2ncccn2)CC1 (stereo not shown) [Compound 39]

Same assay, conditions: 10 μM compound; 125I-gp120/sCD4 binding to membranes from CCR-5/L 1.2 cells; read-out: % Inhib. @ 10 μM

SMILES | inhibition at 10 µM
O=C1C(=Cc2cccc(F)c2)SC(c2cccc(F)c2)N1CCCN1CCN(c2ccccn2)CC1 (stereo not shown) [Compound 26, 5-(3-Fluoro-benzylidene)-2-(3-fluoro-phenyl)-3-[3-(4-pyridin-2-yl-piperazin-1-yl)-propyl]-thiazolidin-4-one] | 75.3%
O=C1C(=Cc2cccc(C(F)(F)F)c2)SC(c2cccc(Cl)c2)N1CCCN1CCN(c2ccccn2)CC1 (stereo not shown) [Compound 30, 2-(3-Chloro-phenyl)-3-[3-(4-pyridin-2-yl-piperazin-1-yl)-propyl]-5-(3-trifluoromethyl-benzylidene)-thiazolidin-4-one] | 61.7%
O=C1C(=Cc2ccccc2)SC(c2cccc(C(F)(F)F)c2)N1CCCN1CCN(c2ccccn2)CC1 (stereo not shown) [Compound 33, 5-Benzylidene-3-[3-(4-pyridin-2-yl-piperazin-1-yl)-propyl]-2-(3-trifluoromethyl-phenyl)-thiazolidin-4-one] | 62%
O=C1C(=Cc2ccccc2)SC(c2cccc(C(F)(F)F)c2)N1CCCN1CCN(c2ncccn2)CC1 (stereo not shown) [Compound 34, 5-Benzylidene-3-[3-(4-pyrimidin-2-yl-piperazin-1-yl)-propyl]-2-(3-trifluoromethyl-phenyl)-thiazolidin-4-one] | 79.2%
O=C1C(=Cc2ccccc2)SC(c2cccc(F)c2)N1CCCN1CCN(c2ccccn2)CC1 (stereo not shown) [Compound 35, 5-Benzylidene-2-(3-fluoro-phenyl)-3-[3-(4-pyridin-2-yl-piperazin-1-yl)-propyl]-thiazolidin-4-one] | 76.2%
O=C1C(=Cc2ccccc2)SC(c2cccc(Cl)c2)N1CCCN1CCN(c2ccccn2)CC1 (stereo not shown) [Compound 40, 5-Benzylidene-2-(3-chloro-phenyl)-3-[3-(4-pyridin-2-yl-piperazin-1-yl)-propyl]-thiazolidin-4-one] | 84.3%
O=C1C(=Cc2ccccc2)SC(c2cccc(Cl)c2)N1CCCN1CCOCC1 (stereo not shown) [Compound 42, 5-Benzylidene-2-(3-chloro-phenyl)-3-(3-morpholin-4-yl-propyl)-thiazolidin-4-one] | 64.7%
O=C1C(=Cc2ccccc2)SC(c2cccc(Cl)c2)N1CCCN1CCN(c2ncccn2)CC1 (stereo not shown) [Compound 43, 5-Benzylidene-2-(3-chloro-phenyl)-3-[3-(4-pyrimidin-2-yl-piperazin-1-yl)-propyl]-thiazolidin-4-one] | 95%

The remaining lines, values ahead:

inhibition at 10 µM | SMILES
50.7% | O=C1C(=Cc2cccc(F)c2)SC(c2cccc(C(F)(F)F)c2)N1CCCN1CCCCC1 (stereo not shown) [Compound 25, 5-(3-Fluoro-benzylidene)-3-(3-piperidin-1-yl-propyl)-2-(3-trifluoromethyl-phenyl)-thiazolidin-4-one]
57.6% | O=C1C(=Cc2cccc(F)c2)SC(c2cccc(F)c2)N1CCCN1CCN(C2CCCCC2)CC1 (stereo not shown) [Compound 27, 3-[3-(4-Cyclohexyl-piperazin-1-yl)-propyl]-5-(3-fluoro-benzylidene)-2-(3-fluoro-phenyl)-thiazolidin-4-one]
86.8% | O=C1C(=Cc2cccc(F)c2)SC(c2cccc(Cl)c2)N1CCCN1CCN(c2ncccn2)CC1 (stereo not shown) [Compound 29, 2-(3-Chloro-phenyl)-5-(3-fluoro-benzylidene)-3-[3-(4-pyrimidin-2-yl-piperazin-1-yl)-propyl]-thiazolidin-4-one]
54.4% | O=C1C(=Cc2cccc(C(F)(F)F)c2)SC(c2cccc(Cl)c2)N1CCCN1CCCCC1 (stereo not shown) [Compound 31, 2-(3-Chloro-phenyl)-3-(3-piperidin-1-yl-propyl)-5-(3-trifluoromethyl-benzylidene)-thiazolidin-4-one]
63.3% | O=C1C(=Cc2ccccc2)SC(c2cccc(F)c2)N1CCCN1CCCCC1 (stereo not shown) [Compound 36, 5-Benzylidene-2-(3-fluoro-phenyl)-3-(3-piperidin-1-yl-propyl)-thiazolidin-4-one]
56.6% | O=C1C(=Cc2ccccc2)SC(c2cccc(F)c2)N1CCCN1CCC(N2CCCCC2)CC1 (stereo not shown) [Compound 37, 5-Benzylidene-3-(3-[1,4′]bipiperidinyl-1′-yl-propyl)-2-(3-fluoro-phenyl)-thiazolidin-4-one]
54.4% | O=C1C(=Cc2ccccc2)SC(c2cccc(F)c2)N1CCCN1CCN(C2CCCCC2)CC1 (stereo not shown) [Compound 38, 5-Benzylidene-3-[3-(4-cyclohexyl-piperazin-1-yl)-propyl]-2-(3-fluoro-phenyl)-thiazolidin-4-one]
62.4% | O=C1C(=Cc2ccccc2)SC(c2cccc(Cl)c2)N1CCCN1CCC(N2CCCCC2)CC1 (stereo not shown) [Compound 41, 5-Benzylidene-3-(3-[1,4′]bipiperidinyl-1′-yl-propyl)-2-(3-chloro-phenyl)-thiazolidin-4-one]
54.5% | O=C1C(=Cc2ccccc2)SC(c2cccc(Cl)c2)N1CCCN1CCN(C2CCCCC2)CC1 (stereo not shown) [Compound 44, 5-Benzylidene-2-(3-chloro-phenyl)-3-[3-(4-cyclohexyl-piperazin-1-yl)-propyl]-thiazolidin-4-one]

Same assay, conditions: block of 125I-gp120 (HIV-1 JR-FL)/sCD4 binding to membranes from CCR-5/L 1.2 cells

SMILES | IC50
O=C1/C(=C\c2cccc(F)c2)SC(c2ccccc2)N1CCCN1CCOCC1 (stereo not shown) [Compound 7, 5-(3-Fluorobenzylidene)-3-(3-morpholin-4-yl-propyl)-2-phenyl-thiazolidin-4-one] | 140 nM
O=C1/C(=C\c2ccc[nH]2)SC(c2cccc(Cl)c2)N1CCCN1CCCCC1 (stereo not shown) [Compound 9, 2-(3-Chlorophenyl)-3-(3-piperidin-1-yl-propyl)-5-(1 H-pyrrol-2-yl-methylene)-thiazolidin-4-one] | 390 nM
O=C1/C(=C\c2ccsc2)SC(c2cccc(Cl)c2)N1CCCN1CCCCC1 (stereo not shown) [Compound 10, 2-(3-Chlorophenyl)-3-(3-piperidin-1-yl-propyl)-5-(thiophen-3-yl-methylene)-thiazolidin-4-one] | 1040 nM
Cn1cccc1C=C1SC(c2cccc(Cl)c2)N(CCCN2CCCCC2)C1=O (stereo not shown) [Compound 11, 2-(3-Chlorophenyl)-5-(1-methyl-1H-pyrrol-2-ylmethylene)-3-(3-piperidin-1-yl-propyl)-thiazolidin-4-one] | 980 nM
CCC(/C=C1/SC(c2cccc(Cl)c2)N(CCCN2CCCCC2)C1=O)CC (stereo not shown) [Compound 12, 2-(3-Chlorophenyl)-5-(2-ethylbutylidene)-3-(3-piperidin-1-yl-propyl)-thiazolidin-4-one] | 6640 nM
CN(C)CC(C)(C)/C=C1/SC(c2cccc(Cl)c2)N(CCCN2CCCCC2)C1=O (stereo not shown) [Compound 13, 2-(3-Chlorophenyl)-5-(3-dimethylamino-2,2-dimethylpropylidene)-3-(3-piperidin-1-yl-propyl)-thiazolidin-4-one] | 2820 nM
O=C1/C(=C\c2cnc3ccccc3c2)SC(c2cccc(Cl)c2)N1CCCN1CCCCC1 (stereo not shown) [Compound 18, 2-(3-Chlorophenyl)-3-(3-piperidin-1-yl-propyl)-5-(quinolin-3-ylmethylene)-thiazolidin-4-one] | 4120 nM
O=C1C(=Cc2ccccc2)SC(c2ccccc2)N1CCCN1CCCCCC1 (stereo not shown) [Compound 21, 3-(3-Azepan-1-ylpropyl)-5-benzylidene-2-phenyl-thiazolidin-4-one] | 1400 nM
O=C1C(=Cc2ccccc2)[S+]([O-])C(c2cccc(Cl)c2)N1CCCN1CCCCC1 (stereo not shown) [Compound 24, 5-Benzylidene-2-(3-chlorophenyl)-1-oxo-3-(3-piperidin-1-yl-propyl)-thiazolidin-4-one] | 3100 nM

Now from value to molecule:

IC50 | SMILES
280 nM | O=C1/C(=C\c2ccccc2)SC(c2cccc(Cl)c2)N1CCCN1CCCCC1 (stereo not shown) [Compound 3, 5-Benzylidene-2-(3-chlorophenyl)-3-(3-piperidin-1-yl-propyl)-thiazolidin-4-one]
200 nM | O=C1/C(=C\c2cccc(F)c2)SC(c2cccc(Cl)c2)N1CCCN1CCCCC1 (stereo not shown) [Compound 4, 2-(3-Chlorophenyl)-5-(3-fluorobenzylidene)-3-(3-piperidin-1-yl-propyl)-thiazolidin-4-one]
710 nM | O=C1/C(=C\c2cccc(F)c2)SC(c2ccccc2)N1CCCN1CCC(N2CCCCC2)CC1 (stereo not shown) [Compound 5, 3-(3-[1,4′]Bipiperidinyl-1′-yl-propyl)-5-(3-fluorobenzylidene)-2-phenyl-thiazolidin-4-one]
780 nM | O=C1/C(=C\c2ccncc2)SC(c2cccc(Cl)c2)N1CCCN1CCCCC1 (stereo not shown) [Compound 8, 2-(3-Chlorophenyl)-3-(3-piperidin-1-yl-propyl)-5-(pyridin-4-yl-methylene)-thiazolidin-4-one]
400 nM | O=C1/C(=C\c2cccc(F)c2)SC(c2cccc(Cl)c2)N1CCCN1CCC(N2CCCCC2)CC1 (stereo not shown) [Compound 22, 3-(3-[1,4′]Bipiperidinyl-1′-yl-propyl)-2-(3-chlorophenyl)-5-(3-fluorobenzylidene)-thiazolidin-4-one]
